In ChEMBL document CHEMBL5634101, “Discovery of NLRP3 inhibitors using machine learning: Identification of a hit compound to treat NLRP3 activation-driven diseases” (Eur J Med Chem, 2023):
Activity calls are given as the source filed them.

Legend:
[1] = molecular target: NACHT, LRR and PYD domains-containing protein 3 (Mus musculus) (UniProt Q8R4B8); assay: Inhibition of NLRP3 inflammasome activation in C57 mouse BMDM cells assessed as reduction in caspase-1 activation at 5 uM preincubated with LPS for 3 hrs followed by compound addition for 30 mins prior to nigericin addition and measured after 30 mins by Western blot analysis; assay type: cell-based; conditions: time 1.0 hrs
[2] = molecular target: T1, Interferon-inducible protein AIM2 (Mus musculus) (UniProt Q91VJ1); assay: Inhibition of AIM2 inflammasome activation in C57 mouse BMDM cells assessed as reduction in caspase-1 maturation at 5 uM preincubated with LPS for 3 hrs followed by poly(dA:dT) stimulation for 4 hrs by Western blot analysis; assay type: cell-based
T1 sequence (whole entry): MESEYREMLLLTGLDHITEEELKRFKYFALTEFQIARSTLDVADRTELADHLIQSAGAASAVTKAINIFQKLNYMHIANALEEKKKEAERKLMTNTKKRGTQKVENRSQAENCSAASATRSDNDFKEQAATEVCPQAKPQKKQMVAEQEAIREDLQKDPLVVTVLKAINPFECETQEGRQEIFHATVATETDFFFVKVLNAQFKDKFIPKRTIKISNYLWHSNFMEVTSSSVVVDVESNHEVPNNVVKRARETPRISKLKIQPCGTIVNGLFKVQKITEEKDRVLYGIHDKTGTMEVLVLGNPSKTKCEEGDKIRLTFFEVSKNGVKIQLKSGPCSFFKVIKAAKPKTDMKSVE

L02 = assay: Cytotoxicity against human L02 cells assessed as reduction in cell viability upto 50 uM incubated for 24 hrs by CCK8 assay; assay type: toxicity, cell-based; conditions: l02, 24 h
BMDM = assay: Cytotoxicity against C57 mouse BMDM cells assessed as reduction in cell viability upto 50 uM incubated for 24 hrs by CCK8 assay; assay type: toxicity, cell-based
[3] = Stability in human liver microsomes assessed as intrinsic clearance at 1.5 uM measured upto 45 mins in presence of NADPH by LC-MS/MS analysis; assay type: ADME, Microsome; conditions: read-out: CLH
[4] = molecular target: NLR family CARD domain-containing protein 4 (Mus musculus) (UniProt Q3UP24); assay: Inhibition of NLRC4 inflammasome activation in C57 mouse BMDM cells assessed as reduction in IL-1beta secretion at 5 uM preincubated with LPS for 3 hrs followed by Salmonella typhimurium stimulation for 2 hrs by Western blot analysis; assay type: cell-based
[5] = molecular target: NACHT, LRR and PYD domains-containing protein 3 (Mus musculus) (UniProt Q8R4B8); assay: Inhibition of NLRP3 inflammasome activation in C57 mouse BMDM cells assessed as reduction in IL-1beta secretion at 5 uM preincubated with LPS for 3 hrs followed by compound addition for 30 mins prior to MSU addition and measured after 4 hrs by Western blot analysis; assay type: cell-based; conditions: time 4.5 hrs
[6] = molecular target: T2, NACHT, LRR and PYD domains-containing protein 3 (Homo sapiens, UniProt Q96P20); assay: Inhibition of NLRP3 inflammasome activation in PMA-differentiated human THP-1 cells assessed as reduction in IL-1beta secretion pre-stimulated with PMA for 24 hrs followed by compound addition and measured after 30 mins by ELISA; assay type: cell-based
THP-1 = assay: Cytotoxicity against PMA-differentiated human THP-1 cells assessed as reduction in cell viability upto 50 uM incubated for 24 hrs by CCK8 assay; assay type: toxicity, cell-based; conditions: thp-1, 24 h
Mus musculus [7] = assay: Anti-inflammatory activity in MSU-induced C57 mouse model of gouty arthritis assessed as reduction in AUC of foot swelling at 30 mg/kg, ip preadministered with compound for 3 days followed by MSU injection and measured after 24 hrs; assay type: functional, organism-based; conditions: time 4.0 day
[8] = molecular target: NACHT, LRR and PYD domains-containing protein 3 (Mus musculus) (UniProt Q8R4B8); assay: Inhibition of NLRP3 inflammasome activation in C57 mouse BMDM cells assessed as reduction in IL-1beta secretion at 5 uM preincubated with LPS for 3 hrs followed by compound addition for 30 mins prior to nigericin addition and measured after 30 mins by Western blot analysis; assay type: cell-based; conditions: time 1.0 hrs
[9] = molecular target: T2, NACHT, LRR and PYD domains-containing protein 3; assay: Inhibition of NLRP3 inflammasome activation in […]-differentiated human THP-1 cells assessed as effect on chloride efflux at 2.5 to 10 uM preincubated with LPS for 3 hrs followed by compound addition for 30 mins prior to nigericin addition and measured after 30 mins by fluorescence based analysis; assay type: cell-based; conditions: dose 2.5-10 µM, time 1.0 hrs
[10] = molecular target: NACHT, LRR and PYD domains-containing protein 3 (Mus musculus) (UniProt Q8R4B8); assay: Inhibition of NLRP3 inflammasome activation in LPS/Nigericin induced C57 mouse BMDM cells assessed as reduction in […] preincubated with LPS for 3 hrs followed by compound addition for 30 mins prior to nigericin addition and measured after 30 mins by PI/Hoechst 33342 staining based analysis; assay type: cell-based; conditions: time 1.0 hrs
HEK-293T = assay: Cytotoxicity against HEK293T cells assessed as reduction in cell viability upto 50 uM incubated for 24 hrs by CCK8 assay; assay type: toxicity, cell-based; conditions: human
Mus musculus [11] = assay: Anti-inflammatory activity in MSU-induced C57 mouse model of acute peritonitis assessed as reduction in IL-1beta expression preadministered intraperitoneally with compound for 3 days followed by MSU injection and measured after 6 hrs by ELISA; assay type: functional, organism-based; conditions: dose 5-30 mg/kg, route ip, time 78.0 hrs
[12] = molecular target: NACHT, LRR and PYD domains-containing protein 3 (Mus musculus) (UniProt Q8R4B8); assay: (§1) Inhibition of NLRP3 inflammasome activation in LPS/Nigericin induced C57 mouse BMDM cells assessed as reduction in active caspase-1 in cell supernatant at 2.5 to 10 uM preincubated with LPS for 3 hrs followed by compound addition for 30 mins prior to nigericin addition and measured after 30 mins by Western blot analysis; assay type: cell-based; conditions: dose 2.5-10 µM, time 1.0 hrs
[13] = molecular target: NACHT, LRR and PYD domains-containing protein 3 (Mus musculus) (UniProt Q8R4B8); assay: as §1, with “IL-1beta maturation” for “active caspase-1”; assay type: cell-based; conditions: dose 2.5-10 µM, time 1.0 hrs
Mus musculus [14] = assay: Anti-inflammatory activity in LPS-induced C57 sepsis mouse model assessed as reduction in serum IL-1beta level at 10 to 30 mg/kg, ip preadministered with compound for 30 mins followed by LPS stimulation and measured after 6 hrs by ELISA; assay type: functional, organism-based; conditions: dose 10-30 mg/kg, time 6.5 hrs
Mus musculus [15] = assay: Analgesic activity in MSU-induced C57 mouse model of gouty arthritis assessed as increase in pain threshold at 10 to 30 mg/kg, ip preadministered with compound for 3 days followed by MSU injection and measured after 24 hrs by von frey test; assay type: functional, organism-based; conditions: dose 10-30 mg/kg, time 4.0 day
[16] = molecular target: NACHT, LRR and PYD domains-containing protein 3 (Mus musculus) (UniProt Q8R4B8); assay: Inhibition of NLRP3 inflammasome activation in C57 mouse BMDM cells assessed as reduction in IL-1beta secretion at 5 uM preincubated with LPS for 3 hrs followed by compound addition for 30 mins prior to ATP addition and measured after 30 mins by Western blot analysis; assay type: cell-based; conditions: time 1.0 hrs

NACHT, LRR and PYD domains-containing protein 3 (Mus musculus), sequence (Q8R4B8 whole entry, the tested form may be a part): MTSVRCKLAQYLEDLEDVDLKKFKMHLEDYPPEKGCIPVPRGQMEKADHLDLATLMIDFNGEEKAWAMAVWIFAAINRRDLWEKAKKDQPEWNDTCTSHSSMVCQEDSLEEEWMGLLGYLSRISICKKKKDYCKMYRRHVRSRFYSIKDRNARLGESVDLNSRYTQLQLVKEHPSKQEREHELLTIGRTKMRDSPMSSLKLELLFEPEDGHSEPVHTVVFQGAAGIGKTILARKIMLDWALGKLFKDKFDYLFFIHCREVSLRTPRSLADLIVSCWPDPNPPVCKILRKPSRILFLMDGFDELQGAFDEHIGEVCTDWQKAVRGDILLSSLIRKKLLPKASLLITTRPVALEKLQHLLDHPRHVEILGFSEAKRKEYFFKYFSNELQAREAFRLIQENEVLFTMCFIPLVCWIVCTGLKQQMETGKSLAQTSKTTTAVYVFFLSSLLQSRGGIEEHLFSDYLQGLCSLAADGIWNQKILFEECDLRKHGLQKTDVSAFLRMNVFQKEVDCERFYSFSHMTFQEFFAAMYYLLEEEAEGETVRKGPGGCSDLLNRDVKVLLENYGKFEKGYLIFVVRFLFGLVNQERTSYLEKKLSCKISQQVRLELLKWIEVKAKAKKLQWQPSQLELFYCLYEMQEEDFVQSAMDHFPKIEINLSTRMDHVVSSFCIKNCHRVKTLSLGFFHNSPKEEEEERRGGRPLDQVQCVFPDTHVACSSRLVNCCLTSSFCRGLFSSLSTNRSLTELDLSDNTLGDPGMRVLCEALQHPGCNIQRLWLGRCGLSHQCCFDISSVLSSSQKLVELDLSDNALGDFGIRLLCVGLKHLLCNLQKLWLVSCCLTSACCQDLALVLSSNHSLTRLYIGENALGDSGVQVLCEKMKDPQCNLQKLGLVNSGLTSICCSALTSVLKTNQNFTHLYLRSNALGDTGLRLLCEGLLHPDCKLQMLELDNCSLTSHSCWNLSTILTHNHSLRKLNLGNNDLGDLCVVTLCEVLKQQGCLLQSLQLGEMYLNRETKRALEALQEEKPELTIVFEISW
T2 sequence (Q96P20 whole entry, the tested form may be a part): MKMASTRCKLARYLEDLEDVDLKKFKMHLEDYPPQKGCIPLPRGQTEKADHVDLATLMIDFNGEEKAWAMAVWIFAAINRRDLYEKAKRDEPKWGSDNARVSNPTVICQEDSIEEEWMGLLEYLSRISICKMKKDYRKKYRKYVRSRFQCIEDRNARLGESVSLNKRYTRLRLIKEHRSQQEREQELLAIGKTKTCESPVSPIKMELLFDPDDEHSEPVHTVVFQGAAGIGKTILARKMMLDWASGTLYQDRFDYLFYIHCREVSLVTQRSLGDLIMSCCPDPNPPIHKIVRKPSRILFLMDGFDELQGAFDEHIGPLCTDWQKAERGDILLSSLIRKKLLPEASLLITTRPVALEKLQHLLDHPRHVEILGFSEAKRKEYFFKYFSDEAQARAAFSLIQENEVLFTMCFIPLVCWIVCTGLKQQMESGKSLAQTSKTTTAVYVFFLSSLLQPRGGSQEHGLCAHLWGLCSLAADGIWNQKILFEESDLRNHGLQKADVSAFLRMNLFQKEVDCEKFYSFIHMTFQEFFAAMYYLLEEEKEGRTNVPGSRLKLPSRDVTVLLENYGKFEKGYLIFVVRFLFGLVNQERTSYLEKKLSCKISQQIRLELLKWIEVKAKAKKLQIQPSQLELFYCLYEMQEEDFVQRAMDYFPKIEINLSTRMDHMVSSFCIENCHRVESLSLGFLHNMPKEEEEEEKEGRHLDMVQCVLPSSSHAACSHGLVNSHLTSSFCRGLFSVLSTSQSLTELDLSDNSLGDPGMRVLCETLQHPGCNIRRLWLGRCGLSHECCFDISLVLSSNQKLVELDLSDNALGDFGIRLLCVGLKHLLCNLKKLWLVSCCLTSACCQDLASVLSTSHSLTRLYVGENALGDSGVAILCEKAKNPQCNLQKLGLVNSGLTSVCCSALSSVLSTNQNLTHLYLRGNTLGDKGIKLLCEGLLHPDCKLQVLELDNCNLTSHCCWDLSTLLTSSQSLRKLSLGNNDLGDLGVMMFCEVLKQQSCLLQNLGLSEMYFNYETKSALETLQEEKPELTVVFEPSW
NLR family CARD domain-containing protein 4 (Mus musculus), sequence (Q3UP24 whole entry, the tested form may be a part): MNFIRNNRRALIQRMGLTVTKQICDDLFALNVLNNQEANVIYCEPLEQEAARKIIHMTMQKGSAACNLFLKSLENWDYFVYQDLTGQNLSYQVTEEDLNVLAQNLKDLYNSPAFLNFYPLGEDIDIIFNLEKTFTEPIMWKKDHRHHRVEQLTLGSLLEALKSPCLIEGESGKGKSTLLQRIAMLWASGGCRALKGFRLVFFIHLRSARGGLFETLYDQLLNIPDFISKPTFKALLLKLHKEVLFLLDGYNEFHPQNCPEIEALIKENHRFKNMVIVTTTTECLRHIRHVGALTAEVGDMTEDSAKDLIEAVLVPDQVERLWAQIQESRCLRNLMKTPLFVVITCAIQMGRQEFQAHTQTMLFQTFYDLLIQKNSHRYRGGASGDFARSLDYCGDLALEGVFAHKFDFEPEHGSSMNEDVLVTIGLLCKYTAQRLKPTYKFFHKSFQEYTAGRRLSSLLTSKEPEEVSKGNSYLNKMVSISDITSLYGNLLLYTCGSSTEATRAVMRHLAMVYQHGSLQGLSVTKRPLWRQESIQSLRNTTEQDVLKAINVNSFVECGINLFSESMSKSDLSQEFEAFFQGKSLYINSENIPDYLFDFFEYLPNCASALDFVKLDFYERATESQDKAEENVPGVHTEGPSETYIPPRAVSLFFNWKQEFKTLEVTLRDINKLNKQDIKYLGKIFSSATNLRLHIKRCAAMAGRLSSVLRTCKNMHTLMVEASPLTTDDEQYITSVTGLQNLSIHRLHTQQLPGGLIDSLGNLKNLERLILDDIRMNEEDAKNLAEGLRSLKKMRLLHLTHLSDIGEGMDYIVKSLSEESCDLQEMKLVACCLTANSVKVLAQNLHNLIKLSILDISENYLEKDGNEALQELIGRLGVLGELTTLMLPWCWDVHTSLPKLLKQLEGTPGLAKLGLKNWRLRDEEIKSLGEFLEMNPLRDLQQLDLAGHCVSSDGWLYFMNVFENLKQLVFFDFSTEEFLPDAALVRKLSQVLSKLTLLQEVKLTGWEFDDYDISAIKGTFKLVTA

- inhibition [1]: Active
- inhibition [2]: inactive
- CLint scaled at 1.5 µM [3]: 11.2 mL/min/kg
- inhibition [4]: inactive
- inhibition [5]: Active
- IC50 [6]: 2300 nM
- inhibition [8]: Active
- inhibition [9]: inactive
- inhibition [10]: Active
- inhibition [12]: Active
- inhibition [13]: Active
- inhibition [16]: Active
SMILES: COc1ccc(N2C(=O)/C(=C\c3ccccc3C(F)(F)F)SC2=S)cc1
- Activity (L02): Non-Toxic
- Activity (BMDM): Non-Toxic
- Activity (THP-1): Non-Toxic
- Activity (Mus musculus [7]): Active
- Activity (HEK-293T): Non-Toxic
- Activity (Mus musculus [11]): Dose-Dependent Effect
- Activity (Mus musculus [14]): Active
- Activity (Mus musculus [15]): Active
